Measured values from patent US5331094A, “Purified active somatostatin receptor” (American Cyanamid Company, priority 1992, dated 1994).
pKd: −log10 of the molar value. Values belong to the molecule of their own block, whether it stands above or below them. Bridge positions count the residues as written; N and C are the ends. Square brackets hold non-standard residues; d marks the D form. Peptide text beside a SMILES is read from it. * marks the point of attachment. Biotin = O=C1N[C@H]2[C@H](CS[C@H]2CCCCC(=O)*)N1; Tyr(3-I) = N[C@@H](Cc1ccc(O)c(I)c1)C(=O)O; Ahx = NCCCCCC(=O)O

Assays:
Immobilized Streptavidin = target: T1, Immobilized Streptavidin (Streptomyces avidinii, UniProt P22629); experiment: Binding of [125I]-labelled biotinyl-SRIFs (solubilized R:L complex) to immobilized streptavidin; conditions: for Initial CPM: 100 ul of initial 100,000 x g supernatant containing soluble R:L complex; for CPM (non-bound), 1 hour: 100 ul supernatant after 1 hour incubation with SA-agarose; for CPM (non-bound), 1 hour / CPM (non-bound), 3 hours: 4-10 C; for CPM (non-bound), 3 hours: 100 ul supernatant after 3 hours incubation with SA-agarose; for % Binding of Radioligand to SA-Agarose, 1 hour, % Bound: 1 hour incubation with SA-agarose; for % Binding of Radioligand to SA-Agarose, 3 hours, % Bound: 3 hours incubation with SA-agarose
T1 construct: purchased Pierce Chemical Co
Method: (§1) To compare the three biotinyl-SRIF analogs in terms of binding to streptavidin, the following experiment is done. [^125 I]Bio-SRIF analogs are bound to GH4 C1 membranes as described ("Methods: Receptor Binding Methods, 3"). All radioligands are at a concentration of […] cpm/ml. For each radioligand, a control for non-specific binding was done in the presence of 1 uM cold S14. CPM bound/mg membrane protein after the binding step are as follows: [^125 I]Bio-6C-S14=755,020 (total) and 43,361 (non-specific); [^125 I]Bio-12C=S14=633,134 (total) and 39,538 (nonspecific); [^125 I]Bio-S28=1,065,512 (total) and 35,049 (nonspecific). The membrane pellets are solubilized in solubilization buffer containing 0.15% deoxycholate:lysolecithin and 0.2 mM MgCl2 as described ("Methods: Membrane Solubilization"). […] One ml samples of solubilized membranes are incubated with 0.05 ml vols of streptavidin-agarose at 4°-10° C. on a tube rotator for the times shown. Non-specific binding samples are not done due to the low levels of non-specific binding. At the times shown, the […] beads are spun down and 100 ul samples of supernatant are counted. The cpm are compared to initial cpm in the sample and % binding to SA is calculated from this. Also, it should be noted that binding of cpm from the supernatant is considered to parallel the binding of R:L complex. Several observations confirm that this is a valid assumption.

SRIF receptor [1] = experiment: Scatchard analysis of binding of [125I]-labelled SRIF analogs to GH4 C1 membranes; set-up: species or system rat; conditions: GH4 C1 membranes (FIG. 2), read-out: dissociation constant (KD)
Method: 1. Standard Binding Assays--Binding assays are done in a binding buffer containing 50 mM HEPES (pH 7.4), 0.5% BSA and 5 mM MgCl2. The standard assay for [^125 I]SRIF analog binding to GH4 C1 membranes, done in 96 well microtiter plates (Dynataech Immulon II Removawell plates), is carried out as follows: 1. Radioligand is diluted in binding buffer+ PMSF/Baci to the desired cpm per vol. of 50 μl and then 50 μl aliquots are added to the wells. For non-specific binding samples, 5 μl of 40 μM cold S14 is also added per well. 2. Binding is initiated by adding 150 μl per well of membrane diluted to the desired concentration (10-30 ug membrane protein/well) in binding buffer+ PMSF/Baci. Plates are then covered with Linbro mylar plate sealers (Flow Labs) and placed on a Dynatech Microshaker II and binding is allowed to proceed at room temperature for 1-2 hours. Binding is stopped by centrifuging the plate for 15 minutes at 2,000×g. The supernatants are dumped off and membrane pellets washed once by addition of 200 μl of ice cold binding buffer, brief shaking and recentrifugation. Finally the individual wells are placed in 12×75 mm tubes and counted in an LKB Gammamaster counter (78% efficiency). Specific binding by this method is identical to that measured when free ligand is removed by rapid (3-5 seconds) filtration and washing on polyethyleneimine-coated glass fiber filters.
Because Bio-C6-S14, Bio-C12-S14 and Bio-S28 all contain tyrosine residues, it is possible to prepare their [^125 I] labelled analogs and carry out Scatchard analyses of their binding affinities relative to [^125 I]Tyr11-S14 (FIG. 2). As shown in the figure, the [^125 I]-labelled peptides fall in the same order of potency as their non-labelled forms. The dissociation constants (KDs) and relative binding affinities are [^125 I]Tyr11-S14 (0.1 nM)>[^125 I]Bio-S28 (0.2 nM)>[^125I]Bio-6C-S14 (0.3 nM)>[^125 I]Bio-12C-S14 (0.4 nM).

SRIF receptor [2] = experiment: Binding of [125I]Bio-SRIF analogs to GH4 C1 membranes (CPM bound); set-up: species or system rat; conditions: for CPM bound/mg membrane protein (total): after the binding step; for CPM bound/mg membrane protein (non-specific): in the presence of 1 uM cold S14
Method: 3. Chemical cross-linking of radioligand with receptor is done after a binding step identical to the standard assay. However, the wash step is done with binding buffer minus BSA to reduce the possibility of non-specific cross-linking of radioligand with BSA. The cross-linking step is carried out as described below.
as §1

SRIF receptor [3] = experiment: Lectin affinity binding (WGA-agarose) of solubilized receptor:[125I]Tyr11-S14 complex; set-up: species or system rat; conditions: for A/B, GFB/PEI filters: Recovery of soluble R:L complex
Method: 4. Larger scale binding assays to obtain membrane pellets for studies on solubilization of receptor: ligand complex and for receptor purification are also carried out. These are identical to the standard assays except that: (a) Binding is carried out in polypropylene tubes in volumes from 1-250 ml, (b) Concentration of membrane protein is always 0.5 mg/ml, (c) For receptor purification, BSA concentration in the binding buffer is reduced to 0.25% and the wash step is done with binding buffer without BSA. This is to reduce BSA contamination of the purified receptor.
H. Assay of Solubilized Receptors--After binding of [^125 I]SRIF analogs and solubilization of the membranes with detergent, the intact R:L complex could be assayed by four different methods (all carried out on ice or in a cold room at 4°-10° C.): (1) Column chromatography (Knuhtsen et al., Biochem. J. 254:641-647, 1988). Sephadex G-50 columns (8×250 mm) are equilibrated with solubilization buffer containing detergent at the concentration used to solubilize membranes and 1 mg/ml bovine serum albumin. 0.2-0.5 ml samples of solubilized membranes are applied to the columns and eluted at a flow rate of about 0.7 ml/minute. 0.18 ml samples are collected. Radioactivity is determined in a gamma counter as described under "Receptor Binding Methods". Void volumes of the columns are determined by the elution volume of blue dextran. Radioactivity eluting in the void volume (>50,000 MW) was considered bound to protein. Radioactivity eluting later, at the same volume as free [^125 I]SRIF, is considered non-bound. (2) Polyethyleneglycol precipitation (Cuatrecasas, PNAS USA 69:318-322, 1972) For a 100 ul sample of solubilized membranes in a 12×75 mm polypropylene tube, 0.5 ml of 1% (w/v) bovine gamma globulin (Sigma) in 0.1M sodium phosphate buffer is added, followed by 0.5 ml of 25% (w/v) polyethyleneglycol (Sigma) and mixing. The mixture is held on ice for 15 minutes. Then 3 ml of 0.1M sodium phosphate (pH 7.4) is added per sample and the samples are rapidly (1-3 seconds) filtered over Whatman GF/B glass fiber filters and washed with 4 ml of the phosphate buffer. PEG precipitated SRIF receptor:[^125 I]SRIF complex is determined by gamma counting of the filters. (3) GFB/PEI filter binding (Bruns et al., Analytical Biochem. 132:74-81, 1983). Whatman GF/B glass fiber filters are soaked in 0.3% polyethyleneimine (PEI, Sigma) for 3 hours. 25-100 ul samples of solubilized membranes are replaced in 12×75 mm polypropylene tubes. Then 4 ml of solubilization buffer (without detergent) is added per sample and the samples are immediately filtered through the GFB/PEI filters (1-3 seconds) and washed with 4 ml of solubilization buffer. CPM of SRIF receptor:[^125 I]SRIF complex adsorbed to filters are determined by gamma counting. (4) Charcoal/Dextran (Paul and Said, Peptides 7[Suppl. 1]:147-149, 1986). 0.5 gm of Dextran T70 (Pharmacia) is dissolved in 1 liter of water and then 5 gm of activated charcoal (Norit A, alkaline; Fisher Scientific) is added. The suspension is stirred for 10 minutes at room temperature and then stored at 4° C. until use. To measure R:L complex, 4 parts by volume of charcoal/dextran suspension are added to 1 part by volume of solubilized membrane. The samples are mixed and held on ice for 2 minutes and then centrifuged for 2 minutes at 11,000×g in a Beckman microfuge. Free radioligand is adsorbed charcoal/dextran and is discarded with the pellet. SRIF receptor:[^125 I]SRIF complex remain in the supernatant and is determined by gamma counting.
A. Solubilized Receptor: [^125 I]Tyr11-S14 Complex-Binding of [^125 I][…] to GH4 C1 membranes is carried out as in "Receptor Binding Methods. 4". Binding incubations contain 0.5 mg/ml membrane protein and 6×10^6 cpm/ml of [^125 I]Tyr11-S14. Solubilization of membranes in 0.15% deoxycholate:lysolecithin is also as previous described. […]

[4] = Sample: 100,000 x g supernatant
[5] = Sample: Eluted from WGA-agarose
[6] = Sample: Non-bound to WGA-agarose

Compound: C[C@H](NC(=O)CCCCCNC(=O)CCCCCNC(=O)CCCC[C@@H]1SC[C@@H]2NC(=O)N[C@@H]21)C(=O)NCC(=O)N[C@H]1CSSC[C@@H](C(=O)O)NC(=O)[C@H](CO)NC(=O)[C@H]([C@@H](C)O)NC(=O)[C@H](Cc2ccc(O)c(I)c2)NC(=O)[C@H]([C@@H](C)O)NC(=O)[C@H](CCCCN)NC(=O)[C@H](Cc2c[nH]c3ccccc23)NC(=O)[C@H](Cc2ccccc2)NC(=O)[C@H](Cc2ccccc2)NC(=O)[C@H](CC(N)=O)NC(=O)[C@H](CCCCN)NC1=O [[^125 I]Bio-12C-S14] ({Biotin-Ahx-Ahx}-AGCKNFFWKT[Tyr(3-I)]TSC-OH; disulfide 3-14 (inferred); C-terminus assumed)
Initial CPM (Immobilized Streptavidin): 54,344 CPM | CPM (non-bound), 1 hour (Immobilized Streptavidin): 23,391 CPM | CPM (non-bound), 3 hours (Immobilized Streptavidin): 13,071 CPM | % Binding of Radioligand to SA-Agarose, 1 hour, % Bound (Immobilized Streptavidin): 57% | % Binding of Radioligand to SA-Agarose, 3 hours, % Bound (Immobilized Streptavidin): 76% | pKd (SRIF receptor [1]): 9.40 | CPM bound/mg membrane protein (total) (SRIF receptor [2]): 633,134 CPM bound/mg membrane protein | CPM bound/mg membrane protein (non-specific) (SRIF receptor [2]): 39,538 CPM bound/mg membrane protein

A/B, GFB/PEI filters (SRIF receptor [3]; 100,000 x g supernatant): 11.3 | A/B, GFB/PEI filters (SRIF receptor [3]; Eluted from WGA-agarose): 33.7 | A/B, GFB/PEI filters (SRIF receptor [3]; Non-bound to WGA-agarose): 2.9 | A/B (total/non-specific) (SRIF receptor [3]; [4]): 8.2 | CPM of [125I]Tyr11-S14, A. Total (SRIF receptor [3]; [4]): 104,420 CPM | CPM of [125I]Tyr11-S14, B. Non-Specific (SRIF receptor [3]; [4]): 12,756 CPM | A/B (total/non-specific) (SRIF receptor [3]; Sample: Bound to WGA-agarose): 22.1 | CPM of [125I]Tyr11-S14, A. Total (SRIF receptor [3]; Sample: Bound to WGA-agarose): 69,889 CPM | CPM of [125I]Tyr11-S14, B. Non-Specific (SRIF receptor [3]; Sample: Bound to WGA-agarose): 3,157 CPM | A/B (total/non-specific) (SRIF receptor [3]; [5]): 23.0 | CPM of [125I]Tyr11-S14, A. Total (SRIF receptor [3]; [5]): 58,925 CPM | CPM of [125I]Tyr11-S14, B. Non-Specific (SRIF receptor [3]; [5]): 2,524 CPM | A/B (total/non-specific) (SRIF receptor [3]; Sample: Membranes): 5.3 | CPM of [125I]Tyr11-S14, A. Total (SRIF receptor [3]; Sample: Membranes): 151,848 CPM | CPM of [125I]Tyr11-S14, B. Non-Specific (SRIF receptor [3]; Sample: Membranes): 28,812 CPM | A/B (total/non-specific) (SRIF receptor [3]; [6]): 2.4 | CPM of [125I]Tyr11-S14, A. Total (SRIF receptor [3]; [6]): 23,112 CPM | CPM of [125I]Tyr11-S14, B. Non-Specific (SRIF receptor [3]; [6]): 9,624 CPM | pKd (SRIF receptor [1]): 10.00
Compound: C[C@H](N)C(=O)NCC(=O)N[C@H]1CSSC[C@@H](C(=O)O)NC(=O)[C@H](CO)NC(=O)[C@H]([C@@H](C)O)NC(=O)[C@H](Cc2ccc(O)c(I)c2)NC(=O)[C@H]([C@@H](C)O)NC(=O)[C@H](CCCCN)NC(=O)[C@H](Cc2c[nH]c3ccccc23)NC(=O)[C@H](Cc2ccccc2)NC(=O)[C@H](Cc2ccccc2)NC(=O)[C@H](CC(N)=O)NC(=O)[C@H](CCCCN)NC1=O [[^125 I]Tyr11-S14] (H-AGCKNFFWKT[Tyr(3-I)]TSC-OH; disulfide 3-14 (inferred); N-terminus and C-terminus assumed)

Compound: C[C@H](NC(=O)CCCCCNC(=O)CCCC[C@@H]1SC[C@@H]2NC(=O)N[C@@H]21)C(=O)NCC(=O)N[C@H]1CSSC[C@@H](C(=O)O)NC(=O)[C@H](CO)NC(=O)[C@H]([C@@H](C)O)NC(=O)[C@H](Cc2ccc(O)c(I)c2)NC(=O)[C@H]([C@@H](C)O)NC(=O)[C@H](CCCCN)NC(=O)[C@H](Cc2c[nH]c3ccccc23)NC(=O)[C@H](Cc2ccccc2)NC(=O)[C@H](Cc2ccccc2)NC(=O)[C@H](CC(N)=O)NC(=O)[C@H](CCCCN)NC1=O [[^125 I]Bio-6C-S14] ({Biotin-Ahx}-AGCKNFFWKT[Tyr(3-I)]TSC-OH; disulfide 3-14)
Initial CPM (Immobilized Streptavidin): 63,490 CPM | CPM (non-bound), 1 hour (Immobilized Streptavidin): 28,381 CPM | CPM (non-bound), 3 hours (Immobilized Streptavidin): 16,228 CPM | % Binding of Radioligand to SA-Agarose, 1 hour, % Bound (Immobilized Streptavidin): 55% | % Binding of Radioligand to SA-Agarose, 3 hours, % Bound (Immobilized Streptavidin): 74% | pKd (SRIF receptor [1]): 9.52 | CPM bound/mg membrane protein (total) (SRIF receptor [2]): 755,020 CPM bound/mg membrane protein | CPM bound/mg membrane protein (non-specific) (SRIF receptor [2]): 43,361 CPM bound/mg membrane protein
